The record followed here is ChEMBL document CHEMBL1141622, “Carbonic anhydrase inhibitors: interactions of phenols with the 12 catalytically active mammalian isoforms (CA I-XIV)” (Bioorg Med Chem Lett, 2008).

The target of assay [1] is Carbonic anhydrase 13 (Mus musculus) (UniProt Q9D6N1). The assay is described as follows: Inhibition of mouse recombinant full length carbonic hydrase 13 by stopped-flow assay.
Assay [2] addresses Carbonic anhydrase 3 (Homo sapiens) (UniProt P07451).
Description: Inhibition of human recombinant full length carbonic hydrase 3 by stopped-flow assay
The target of assay [3] is Carbonic anhydrase 5A, mitochondrial (Homo sapiens) (UniProt P35218).
Chain of Carbonic anhydrase 5A, mitochondrial (Homo sapiens) (P35218 whole entry): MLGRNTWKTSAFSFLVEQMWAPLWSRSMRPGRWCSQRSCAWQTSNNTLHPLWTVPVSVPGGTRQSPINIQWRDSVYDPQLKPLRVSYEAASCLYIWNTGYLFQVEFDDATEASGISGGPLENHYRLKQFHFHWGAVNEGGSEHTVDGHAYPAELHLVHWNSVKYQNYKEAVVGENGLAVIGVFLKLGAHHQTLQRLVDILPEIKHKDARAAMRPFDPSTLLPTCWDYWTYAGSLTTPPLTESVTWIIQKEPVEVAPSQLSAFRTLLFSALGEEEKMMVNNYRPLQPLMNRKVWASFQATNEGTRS
Description: Inhibition of human recombinant full length carbonic hydrase 5A by stopped-flow assay
In assay [4] the target is Carbonic anhydrase 6 (Homo sapiens) (UniProt P23280).
Chain of Carbonic anhydrase 6 (Homo sapiens) (P23280 whole entry): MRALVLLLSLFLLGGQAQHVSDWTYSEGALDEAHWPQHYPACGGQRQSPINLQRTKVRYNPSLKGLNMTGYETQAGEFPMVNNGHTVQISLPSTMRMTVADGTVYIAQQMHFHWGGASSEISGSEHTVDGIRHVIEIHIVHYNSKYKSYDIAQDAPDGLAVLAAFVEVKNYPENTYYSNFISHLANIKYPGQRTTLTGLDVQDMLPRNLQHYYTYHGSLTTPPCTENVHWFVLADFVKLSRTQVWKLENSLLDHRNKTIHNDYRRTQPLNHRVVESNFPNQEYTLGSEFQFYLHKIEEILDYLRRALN
Description: Inhibition of human recombinant full length carbonic hydrase 6 by stopped-flow assay
In assay [5] the target is Carbonic anhydrase 1 (Homo sapiens) (UniProt P00915).
Chain of Carbonic anhydrase 1 (Homo sapiens) (P00915 2-261 limits assumed): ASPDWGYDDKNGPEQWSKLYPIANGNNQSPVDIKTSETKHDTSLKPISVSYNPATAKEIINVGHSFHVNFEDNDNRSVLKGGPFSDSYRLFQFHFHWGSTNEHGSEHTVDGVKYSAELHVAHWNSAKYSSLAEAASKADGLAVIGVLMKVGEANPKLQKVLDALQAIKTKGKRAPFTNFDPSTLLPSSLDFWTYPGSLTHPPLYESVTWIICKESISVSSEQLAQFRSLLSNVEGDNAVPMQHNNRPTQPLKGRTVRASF
Description: Inhibition of human recombinant full length carbonic hydrase 1 by stopped-flow assay
The target in assay [6] is Carbonic anhydrase 2 (Homo sapiens) (UniProt P00918).
Description: Inhibition of human recombinant full length carbonic hydrase 2 by stopped-flow assay
Assay [7] has as its target Carbonic anhydrase 4 (Homo sapiens) (UniProt P22748).
Description: Inhibition of human recombinant full length carbonic hydrase 4 by stopped-flow assay
The target of assay [8] is Carbonic anhydrase 7 (Homo sapiens) (UniProt P43166).
Chain of Carbonic anhydrase 7 (Homo sapiens) (P43166 whole entry): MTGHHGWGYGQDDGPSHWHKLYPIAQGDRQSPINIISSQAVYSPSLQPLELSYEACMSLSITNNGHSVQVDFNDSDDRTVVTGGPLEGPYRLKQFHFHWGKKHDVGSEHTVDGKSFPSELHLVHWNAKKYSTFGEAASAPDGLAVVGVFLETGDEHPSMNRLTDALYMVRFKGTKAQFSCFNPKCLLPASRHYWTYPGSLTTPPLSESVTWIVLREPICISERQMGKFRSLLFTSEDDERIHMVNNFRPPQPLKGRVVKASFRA
Description: Inhibition of human recombinant full length carbonic hydrase 7 by stopped-flow assay
For assay [9], the target named is Carbonic anhydrase 9 (Homo sapiens) (UniProt Q16790).
Description: Inhibition of human catalytic domain carbonic hydrase 9 by stopped-flow assay
Assay [10] concerns the target Carbonic anhydrase 12 (Homo sapiens) (UniProt O43570).
Description: Inhibition of human catalytic domain carbonic hydrase 12 by stopped-flow assay
Assay [11] deals with Carbonic anhydrase 14 (Homo sapiens) (UniProt Q9ULX7).
Chain of Carbonic anhydrase 14 (Homo sapiens) (Q9ULX7 whole entry): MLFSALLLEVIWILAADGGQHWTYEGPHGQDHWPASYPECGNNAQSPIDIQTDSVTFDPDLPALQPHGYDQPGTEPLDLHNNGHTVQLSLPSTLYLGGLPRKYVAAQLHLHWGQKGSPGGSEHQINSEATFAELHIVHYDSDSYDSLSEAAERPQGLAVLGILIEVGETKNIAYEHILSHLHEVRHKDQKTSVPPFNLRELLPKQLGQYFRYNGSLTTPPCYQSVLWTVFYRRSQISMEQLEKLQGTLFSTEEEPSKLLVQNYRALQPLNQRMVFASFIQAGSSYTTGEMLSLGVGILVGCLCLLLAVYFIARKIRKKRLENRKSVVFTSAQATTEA
Description: Inhibition of human recombinant full length carbonic hydrase 14 by stopped-flow assay
Assay [12] deals with Carbonic anhydrase 5B, mitochondrial (Homo sapiens) (UniProt Q9Y2D0).
Chain of Carbonic anhydrase 5B, mitochondrial (Homo sapiens) (Q9Y2D0 whole entry): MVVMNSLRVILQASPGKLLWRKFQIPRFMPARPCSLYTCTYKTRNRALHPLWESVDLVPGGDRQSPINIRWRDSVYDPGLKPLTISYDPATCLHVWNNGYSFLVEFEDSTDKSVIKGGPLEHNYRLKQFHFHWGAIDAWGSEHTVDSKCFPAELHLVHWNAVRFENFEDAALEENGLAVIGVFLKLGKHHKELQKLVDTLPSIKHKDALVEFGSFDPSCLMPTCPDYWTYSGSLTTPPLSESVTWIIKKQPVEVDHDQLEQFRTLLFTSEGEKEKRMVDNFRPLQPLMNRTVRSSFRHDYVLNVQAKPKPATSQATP
Description: Inhibition of human recombinant full length carbonic hydrase 5B by stopped-flow assay

Structures are written as SMILES.

Chain of Carbonic anhydrase 13 (Mus musculus) (Q9D6N1 whole entry, looked up): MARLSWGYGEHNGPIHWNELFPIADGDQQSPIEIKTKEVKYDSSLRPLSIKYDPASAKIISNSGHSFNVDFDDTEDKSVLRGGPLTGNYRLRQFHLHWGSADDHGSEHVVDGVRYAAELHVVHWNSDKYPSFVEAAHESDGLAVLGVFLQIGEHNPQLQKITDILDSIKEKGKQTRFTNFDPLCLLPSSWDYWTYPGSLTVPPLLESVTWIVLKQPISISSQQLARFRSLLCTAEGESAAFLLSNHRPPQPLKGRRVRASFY
Chain of Carbonic anhydrase 3 (Homo sapiens) (P07451 whole entry): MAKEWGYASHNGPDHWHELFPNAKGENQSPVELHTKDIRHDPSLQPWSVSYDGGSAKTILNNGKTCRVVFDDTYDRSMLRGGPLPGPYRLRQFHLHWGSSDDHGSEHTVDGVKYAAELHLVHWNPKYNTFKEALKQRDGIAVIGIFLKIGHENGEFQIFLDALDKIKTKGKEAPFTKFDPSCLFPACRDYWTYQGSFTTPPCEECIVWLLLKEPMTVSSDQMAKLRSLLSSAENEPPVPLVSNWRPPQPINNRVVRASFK
Chain of Carbonic anhydrase 4 (Homo sapiens) (P22748 whole entry): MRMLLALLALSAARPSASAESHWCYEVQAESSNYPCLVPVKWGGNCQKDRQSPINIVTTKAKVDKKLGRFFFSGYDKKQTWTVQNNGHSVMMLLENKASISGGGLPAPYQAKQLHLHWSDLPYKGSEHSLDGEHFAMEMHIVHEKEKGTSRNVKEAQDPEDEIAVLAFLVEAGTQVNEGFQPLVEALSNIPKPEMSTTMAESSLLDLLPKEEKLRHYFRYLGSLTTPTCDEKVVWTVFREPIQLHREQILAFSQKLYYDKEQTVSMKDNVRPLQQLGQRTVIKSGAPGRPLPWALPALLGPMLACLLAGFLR
Chain of Carbonic anhydrase 12 (Homo sapiens) (O43570 whole entry): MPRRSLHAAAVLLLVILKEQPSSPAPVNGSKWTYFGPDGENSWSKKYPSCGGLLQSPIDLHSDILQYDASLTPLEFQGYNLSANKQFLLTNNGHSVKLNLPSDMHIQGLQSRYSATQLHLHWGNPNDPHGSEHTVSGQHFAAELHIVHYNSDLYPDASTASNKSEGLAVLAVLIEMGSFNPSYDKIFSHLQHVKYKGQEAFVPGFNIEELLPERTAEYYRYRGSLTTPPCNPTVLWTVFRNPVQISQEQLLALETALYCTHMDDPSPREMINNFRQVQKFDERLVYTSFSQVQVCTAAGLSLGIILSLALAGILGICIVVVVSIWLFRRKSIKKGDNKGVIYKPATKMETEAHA

For the compound `CC(=O)/N=c1/sc(S(N)(=O)=O)nn1C`, the Kinact in [1] was determined as 0.019 µM. For the same compound, the figures for the Ki in assay [2], in [3] and in assay [4] were 710 µM, 0.065 µM and 0.01 µM, respectively.

`Oc1c(I)cc(Cl)c2cccnc12`: the Kinact in assay [1] was 4.9 µM; in assay [8], 16 µM; in assay [9], 5.6 µM; in [10], 8.1 µM; in assay [11], 5 µM. Moreover, the Ki in [5] was 6.6 µM; in assay [6], 6.5 µM; in [2], 3.3 µM; in assay [7], 5.4 µM; in [3] it was 8.3 µM; in [4] it was 5.3 µM.

On to `Oc1cc(F)cc(F)c1`, for which the Kinact in assay [1] worked out at 84.2 µM; in assay [8], 163 µM; in assay [9], 9.4 µM; in assay [10], 70.2 µM; in [11], 10.6 µM. Further, the Ki in [5] worked out at 38.8 µM; in assay [6], 33.9 µM; in [2], 0.71 µM; in [7], 10.7 µM; in assay [3] it was 65 µM; in assay [12], 98.4 µM. The compound also gave an inhibitory constant (Ki) in assay [4] of 82.6 µM.
